Source: article PMC5078989, “Targeted inhibition of the COP9 signalosome for treatment of cancer” (Nature Communications, 2016)
pEC50: −log10 of the molar value.

Tested on: panel of cancer cell lines
Test: Cell viability (CellTiter-Glo) dose-response across cancer cell line panel;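 for pEC50: after 72 h compound incubation with CellTiter-Glo ATP readout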
Type: cell-based, human
Conditions: for pEC50: Homo sapiens
Excerpt: Next, we explored the effect of CSN5 inhibition on the viability of cancer cells. To obtain a comprehensive picture, we generated dose–response curves with a CSN5 inhibitor across more than 500 cancer cell lines in a previously described standardized setting[47] (Supplementary Data 1).
A standardized CellTiter-Glo Assay (Promega #G7570) based on the quantification of ATP was applied according to the manufacturer's protocol to measure the amount of viable cells in culture. In brief, cells were seeded into 384-well plates at optimal density for each cell line. After 4 h, compounds were added at different concentrations in growth medium and incubated for another 72 h in a humidifying chamber at 37 °C and 5% CO2. […] EC50 values were calculated from the plot of percentage of inhibition versus inhibitor concentration using the nonlinear regression analysis software Origin 7.5SR6 (OriginLab Corp.).

pEC50 (SNU-685): 6.14
pEC50 (SNU-738): 6.39
pEC50 (SNU-761): 6.06
pEC50 (SNU-886, SNU-886): 7.37
pEC50 (SNU-1040): 6.80
pEC50 (SNU-1079): 6.41
pEC50 (SNU-C1, SNU-C1): 5.79
pEC50 (SNU-C2A): 5.19
pEC50 (SNU-C4, SNU-C4): 5.95
pEC50 (SNU-C5): 6.23
pEC50 (SR-786, SR-786): 6.07
pEC50 (SU-DHL10, SU-DHL-10): 6.69
pEC50 (SU-DHL-4, SU-DHL-4): 7.12
pEC50 (SU-DHL-5, SU-DHL-5): 7.00
pEC50 (SU-DHL-6, SU-DHL-6): 6.61
pEC50 (SU-DHL-8, SU-DHL-8): 6.81
pEC50 (SU.86.86, SU.86.86): 6.11
pEC50 (SUIT-2, SUIT-2): 6.73
pEC50 (SUM52PE): 6.96
pEC50 (SUM149PT): 6.21
pEC50 (SUM185PE): 7.20
pEC50 (SUM190PT): 7.00
pEC50 (SUM-159-PT, SUM159PT): 5.16
pEC50 (SUP-T1, SUP-T1): 6.81
pEC50 (SW48, SW48): 6.84
pEC50 (SW480, SW480): 6.40
pEC50 (SW900, SW 900): 5.82
pEC50 (SW982, SW982): 6.09
pEC50 (SW1088, SW 1088): < 4.52
pEC50 (SW1271, SW 1271): 6.28
pEC50 (SW1353, SW 1353): 5.54
pEC50 (SW1573, SW 1573): 6.65
pEC50 (SW1783, SW 1783): < 4.52
pEC50 (SW-403, SW403): 6.10
pEC50 (SW-620, SW620): 5.82
pEC50 (SYO-1): 6.55
pEC50 (Sq-1): 6.78
pEC50 (T3M4, T3M-4): 6.34
pEC50 (T47D, T-47D): 6.50
pEC50 (TALL-1, TALL-1): 6.35
pEC50 (TANOUE): 7.24
pEC50 (TC-71, TC-71): 6.80
pEC50 (TCC-PAN2): 5.89
pEC50 (TE-1, TE-1): 5.77
pEC50 (TE-6, TE-6): 6.37
pEC50 (TE-11, TE-11): 6.61
pEC50 (TE-14): 6.47
pEC50 (TF-1, TF-1): 5.77
pEC50 (THP-1, THP-1): 6.76
pEC50 (TT2609-C02): 6.48
pEC50 (TYK-nu): 6.81
pEC50 (U266B1): 6.08
pEC50 (U-87 MG): 6.35
pEC50 (U-118-MG, U-118 MG): 6.27
pEC50 (U-251, U-251 MG): 5.77
pEC50 (U-937, U-937): 6.99
pEC50 (UACC-62, UACC-62): 6.72
pEC50 (UACC-257, UACC-257): 6.19
pEC50 (UCH1, UCH-1): 5.28
pEC50 (UKE1, UKE1): 6.42
pEC50 (VM-CUB-1, VM-CUB1): 6.08
pEC50 (VMRC-LCD): 6.54
pEC50 (VMRC-RCW): 5.91
pEC50 (WM 266-4, WM-266-4): 6.33
pEC50 (WM983B, WM-983B): 6.70
pEC50 (WM-88): 6.29
pEC50 (WM-115, WM-115): 5.85
pEC50 (WM-1799, WM1799): 6.81
pEC50 (WSU-WM): 6.73
pEC50 (YAPC): 6.69
pEC50 (ZR-75-1, ZR-75-1): 6.45
SMILES: NS(=O)(=O)OC[C@@H]1C[C@@H](n2ccc3c(N[C@H]4CCc5ccccc54)ncnc32)C[C@@H]1O [MLN4924]
AMAX (Hs 695T): -54.4409
AMAX (Hs 936.T): -81.1628
AMAX (HuG1-N): -47.6265
AMAX (HuH-7): -61.9045
AMAX (IGR-37): -85.5177
AMAX (IGROV1): -85.9932
AMAX (IPC-298): -80.8233
AMAX (Ishikawa): -91.0654
AMAX (J82): -49.0789
AMAX (JHH-4): -91.4007
AMAX (JHOS-2): -63.2509
AMAX (JHUEM-2): -75.0485
AMAX (JHUEM-3): -28.2496
AMAX (JL-1): -61.5427
AMAX (JVM-2): -91.7997
AMAX (KARPAS-422): -93.0088
AMAX (KATO III): -44.0826
AMAX (KBM-7): -98.5101
AMAX (KE-97): -95.9856
AMAX (KMRC-1): -84.1268
AMAX (KP4): -71.8264
AMAX (KP-1N): -53.1172
AMAX (KP-2): -64.2974
AMAX (KP-3): -63.0208
AMAX (KU-19-19): -84.2248
AMAX (KYSE-150): -87.7498
AMAX (KYSE-180): -85.8737
AMAX (Kasumi3): -97.5892
AMAX (L-363): -96.7272
AMAX (LC2/ad): -74.576
AMAX (MM138): -73.7519
AMAX (MM415): -81.4932
AMAX (MM426): -75.6165
AMAX (MM485): -69.3744
AMAX (MM537): -69.6122
AMAX (MOLT-16): -97.3083
AMAX (MeWo): -75.2037
AMAX (NB-1): -99.4488
AMAX (NCI-H82): -97.4475
AMAX (NCI-H146): -90.9498
AMAX (NCI-H322): -80.9979
AMAX (NCI-H441): -47.4873
AMAX (NCI-H647): -73.4893
AMAX (NCI-H841): -87.0207
AMAX (NCI-H1373): -83.9593
AMAX (NCI-H1568): -95.718
AMAX (NCI-H1755): -73.6315
AMAX (NCI-H2023): -96.0734
AMAX (NCI-H2087): -83.0999
AMAX (NCI-H2110): -89.6657
AMAX (NCI-H2452): -41.6484
AMAX (NCI-N87): -74.5636
AMAX (NO36): -67.5733
AMAX (OUMS-23): -78.9353
AMAX (OV56): -95.0768
AMAX (P3HR-1): -93.355
AMAX (P12-ICHIKAWA): -96.3019
AMAX (PA-TU-8988T): -81.7224
AMAX (PANC-1): -64.2148
AMAX (PC-3): -79.4027
AMAX (PE/CA-PJ34 (clone C12)): -79.361
AMAX (PE/CA-PJ49): -67.4836
AMAX (PF-382): -98.4673
AMAX (PL-21): -95.522
AMAX (Panc 03.27): -88.9221
AMAX (Panc 04.03): -72.0017
AMAX (Panc 10.05): -85.7173
AMAX (RD-ES): -97.5942
AMAX (RT-112): -90.3953
AMAX (SEM): -97.7133
AMAX (SK-ES-1): -95.0336
AMAX (SK-MEL-3): -81.0459
AMAX (SW480): -74.5488
AMAX (VMRC-RCW): -71.6057
